# Source: ChEMBL document CHEMBL1147415, “Inhibition kinetics of carba- and C-fucosyl analogues of GDP-fucose against fucosyltransferase V: implication for the reaction mechanism” (Bioorg Med Chem Lett, 2004)
# Key:
# [1] = target: T1, 4-galactosyl-N-acetylglucosaminide 3-alpha-L-fucosyltransferase FUT5 (Homo sapiens, UniProt Q11128); assay: Inhibition of Fucosyltransferase 5 by the compound was evaluated; Competitive inhibition
# T1 sequence (Q11128 whole entry): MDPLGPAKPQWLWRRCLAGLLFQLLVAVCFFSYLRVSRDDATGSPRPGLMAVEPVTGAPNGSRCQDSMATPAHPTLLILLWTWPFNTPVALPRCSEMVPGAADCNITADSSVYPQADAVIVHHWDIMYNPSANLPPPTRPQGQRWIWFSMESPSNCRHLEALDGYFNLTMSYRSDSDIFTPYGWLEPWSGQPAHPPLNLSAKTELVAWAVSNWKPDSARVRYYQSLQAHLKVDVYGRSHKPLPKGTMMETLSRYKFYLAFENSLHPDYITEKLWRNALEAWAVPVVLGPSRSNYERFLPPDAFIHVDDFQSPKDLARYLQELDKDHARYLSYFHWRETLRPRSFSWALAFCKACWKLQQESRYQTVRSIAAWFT
# [2] = target: T1, 4-galactosyl-N-acetylglucosaminide 3-alpha-L-fucosyltransferase FUT5; assay: Inhibition of Fucosyltransferase 5 by the compound was evaluated; Weak competitive inhibition
Ki [1],Ki [2],Structure (SMILES)
67.1 µM,,CC1CC(OP(=O)(O)OP(=O)(O)OC[C@H]2OC(n3cnc4c(O)nc(N)nc43)[C@H](O)[C@@H]2O)C(O)C(O)C1O (some centres not stated)
,889 µM,CC1OC(CP(=O)(O)OP(=O)(O)OC[C@H]2OC(n3cnc4c(=O)[nH]c(N)nc43)[C@H](O)[C@@H]2O)C(O)C(O)C1O (some centres not stated)
